Where only a bound is given, the exact number is not on record here.

In one test the test system is GM3NPhAc. Nature of the test: ELISA analysis of GM3NPhAc-specific immune responses in immunized mice. It counts as in vivo. On the procedure:
FIG. 1 relates to the ELISA analysis of GM3NPhAc-specific immune responses in mice. For ELISA assays, GM3NPhAc-HSA was used as the capture antigen. Goat anti-mouse kappa antibodies were used to detect antibodies bond to the capture antigen. Titers are determined by linear regression analysis and defined as the highest dilution yielding an optical density of 0.2. (a) GM3NPhAc-specific total antibody contents in day −1, 27 and 38 mice sera. Mice were immunized with 1N containing 15 μg of GM3NPhAc. Each line represents the antibody level in serum pooled from a group of five mice. (b) Comparison of GM3NPhAc-specific total antibody titers in day 38 mice sera. Mice were immunized with 1N containing 15, 6 or 3 μg of GM3NPhAc. (c) Comparison of immunological results of conjugates 1, 2 and T-1. 1N: conjugate 1 alone; 1A: conjugate 1+an external adjuvant; 2N: conjugate 2 alone; 2A: conjugate 2+an external adjuvant; T-1N: conjugate T-1 alone. Each dot represents the GM3NPhAc-specific immune response of individual mouse and the black lines represent the average antibody level of a group of five mice.
FIG. 2 relates to the titer analysis of different isotypes of GM3NPhAc-specific antibodies induced by 1N (left) and T-1N (right). […] Titers are determined by linear regression analysis and defined as the highest dilution yielding an optical density of 0.2. […]

Another test concerns 3T3 A31 cells. Nature of the test: In vitro glycoengineered expression of GM3NPhAc on cell surface, flow cytometry with mAb 2H3. It counts as cell-based, murine. The protocol: (§1) FIG. 3 depicts histograms of the glycoengineering of B16F0 cells (a), 3T3 A31 cells (b) and SKMEL-28 cells (c) using ManNPhAc which induces expression of GM3NPhAc on the cell surface. Cells were cultured with 0, 0.01, 0.02 and 0.04 mM of ManNPhAc, stained with mAb 2H3, labeled with FITC-labeled goat anti-mouse kappa antibody, and analyzed by flow cytometry. Data are presented as raw histograms derived from 20,000 events.
(§2) FIG. 4 depicts histograms of the glycoengineering of B16F0 (a) and 3T3 A31 (b) using NeuNPhAc induces expression of GM3NPhAc on the cell surface. Cells were cultured with 0, 0.01, 0.02 and 0.04 mM of NeuNPhAc, stained with mAb 2H3, labeled with FITC-labeled goat anti-mouse kappa antibody, and analyzed by flow cytometry. Data are presented as raw histograms derived from 10,000 events.
(§3) B16F0, 3T3 A31 and SKMEL-28 cells were incubated with 0.01, 0.02 and 0.04 mM of ManNPhAc or NeuNPhAc, harvested at different time, washed with FACS buffer (phosphate-buffered saline (PBS) containing 1% bovine serum albumin), and incubated on ice for 15 minutes with 100 μL of normal mouse serum (NMS) diluted 1:100 in FACS buffer. Cells were washed 3 times with FACS buffer, and incubated for 30 minutes on ice with 100 μL of anti-GM3NPhAc mAb 2H3 (cell culture supernatant) diluted 1:10 in FACS buffer. Cells were washed again (3 times) and incubated for 30 minutes on ice with 1 μg of FITC-conjugated goat anti-mouse kappa antibody diluted in FACS buffer (100 μL). After washing 3 times with FACS buffer, the expression of GM3NPhAc on cell surfaces was evaluated on a Becton Dickenson FACScan flow cytometer. Data are presented as raw histograms derived from 20000 events.

A further test has as its system B16F0 cells. Described as above. It counts as cell-based, murine. The protocol:
as §1, §2, §3

The next test deals with SKMEL-28 cells. Described as above. It counts as cell-based, human. On the procedure:
as §1, §3

Turning to `CCC(=O)OC1C(NC(=O)C[C@@H](CC)OC(=O)CC)[C@H](OCCNC(=O)CCC(=O)NCc2cn(CCOC3OC(CO)[C@@H](O[C@@H]4OC(CO)[C@H](O)C(O[C@]5(C(=O)O)CC(O)[C@@H](NC(=O)Cc6ccccc6)C([C@H](O)[C@H](O)CO)O5)C4O)C(O)C3O)nn2)OC(CO[C@@H]2OC(CO)[C@@H](OP(=O)(O)O)C(OC(=O)CC)C2NC(=O)C[C@@H](CC)OC(=O)CC)[C@H]1O` (stereo partly drawn) [Compound T-1], in the test with GM3NPhAc (day 38 mice sera, conjugate alone), the “Isotypes of GM3NPhAc-specific antibodies (IgM, IgG1, IgG2a, IgG3)” value was “not only GM3NPhAc-specific IgM and IgG1 antibodies, but also much higher titers of IgG3 antibody”. In addition, in the test on GM3NPhAc (liposome of conjugate alone, no external adjuvant (groups 1N, 2N, T-1N), 15 μg of GM3NPhAc, s.c. day 0, 14, 21, 28), the “GM3NPhAc-specific total antibody immune response” value is “comparable to that induced by 1”.
As to `[2H]C(C(=O)N[C@@H]1C(O)O[C@H](CO)[C@@H](O)[C@@H]1O)c1ccccc1` (stereo partly drawn) [ManNPhAc], the “Cells showing labelling of GM3NPhAc” value in the test with 3T3 A31 cells (0.01 mM) is on record as “no 3T3 A31 cell showing labelling of GM3NPhAc”; in the test with B16F0 cells (0.01 mM), “only partial B16F0 cell”. Also, the “Labelling for GM3NPhAc compared to control group” value in the test on 3T3 A31 cells (0.01 mM) was “no substantial labelling”; in the test with 3T3 A31 cells (0.02 mM) it was “no substantial labelling”; in the test with 3T3 A31 cells (0.04 mM) it was “started to show labelling”. The “Expression of GM3NPhAc on cell surface” value in the test with B16F0 cells (0.01 mM, 72 hours) is listed as “significant expression of GM3NPhAc”; in the test on SKMEL-28 cells (0.02 mM, 96 hours) it was “further increased”; in the test on SKMEL-28 cells (0.04 mM, 96 hours), “further increased”. Besides, in the test with B16F0 cells (0.01, 0.02, 0.04 mM, 72 hours), the “Concentration dependence of GM3NPhAc expression” value is “dependent on ManNPhAc concentrations”. For the same compound, the “Cells showing significant GM3NPhAc labelling above the control group” value in the test on SKMEL-28 cells (0.01 mM, 96 hours) stood at 100%. In the test with SKMEL-28 cells (data not shown), the “Concentration at which a plateau level of GM3NPhAc expression was reached” value is listed as at least 0.04 mM.
Take `O=C(Cc1ccccc1)N[C@H]1[C@H]([C@H](O)[C@H](O)CO)OC(O)(C(=O)O)C[C@@H]1O` (stereo partly drawn) [NeuNPhAc]: in the test on 3T3 A31 cells (0.01, 0.02, 0.04 mM), the “Utilization to express GM3NPhAc on cell surface” value is given as “much more efficiently to express GM3NPhAc, even better than B16F0 cancer cells”. Further, in the test with B16F0 cells (72 hours, same concentrations (0.01, 0.02, 0.04 mM)), the “Expression of GM3NPhAc on cell surface relative to ManNPhAc” value is recorded as “more significant expression of GM3NPhAc than that incubated with ManNPhAc”.

For the origin of these results see patent publication US9259476B2, “Monophosphorylated lipid A derivatives” (WAYNE STATE UNIVERSITY, priority 2009, dated 2016).
